molecular target: T1, JAK3 (Homo sapiens, UniProt P52333); test: INVITROGEN Select Screening assay, enzymatic IC50, JAK3; assay type: biochemical; conditions: not given
T1 construct: purchased INVITROGEN (Select Screening assay service)
T1 sequence (P52333 1-1124): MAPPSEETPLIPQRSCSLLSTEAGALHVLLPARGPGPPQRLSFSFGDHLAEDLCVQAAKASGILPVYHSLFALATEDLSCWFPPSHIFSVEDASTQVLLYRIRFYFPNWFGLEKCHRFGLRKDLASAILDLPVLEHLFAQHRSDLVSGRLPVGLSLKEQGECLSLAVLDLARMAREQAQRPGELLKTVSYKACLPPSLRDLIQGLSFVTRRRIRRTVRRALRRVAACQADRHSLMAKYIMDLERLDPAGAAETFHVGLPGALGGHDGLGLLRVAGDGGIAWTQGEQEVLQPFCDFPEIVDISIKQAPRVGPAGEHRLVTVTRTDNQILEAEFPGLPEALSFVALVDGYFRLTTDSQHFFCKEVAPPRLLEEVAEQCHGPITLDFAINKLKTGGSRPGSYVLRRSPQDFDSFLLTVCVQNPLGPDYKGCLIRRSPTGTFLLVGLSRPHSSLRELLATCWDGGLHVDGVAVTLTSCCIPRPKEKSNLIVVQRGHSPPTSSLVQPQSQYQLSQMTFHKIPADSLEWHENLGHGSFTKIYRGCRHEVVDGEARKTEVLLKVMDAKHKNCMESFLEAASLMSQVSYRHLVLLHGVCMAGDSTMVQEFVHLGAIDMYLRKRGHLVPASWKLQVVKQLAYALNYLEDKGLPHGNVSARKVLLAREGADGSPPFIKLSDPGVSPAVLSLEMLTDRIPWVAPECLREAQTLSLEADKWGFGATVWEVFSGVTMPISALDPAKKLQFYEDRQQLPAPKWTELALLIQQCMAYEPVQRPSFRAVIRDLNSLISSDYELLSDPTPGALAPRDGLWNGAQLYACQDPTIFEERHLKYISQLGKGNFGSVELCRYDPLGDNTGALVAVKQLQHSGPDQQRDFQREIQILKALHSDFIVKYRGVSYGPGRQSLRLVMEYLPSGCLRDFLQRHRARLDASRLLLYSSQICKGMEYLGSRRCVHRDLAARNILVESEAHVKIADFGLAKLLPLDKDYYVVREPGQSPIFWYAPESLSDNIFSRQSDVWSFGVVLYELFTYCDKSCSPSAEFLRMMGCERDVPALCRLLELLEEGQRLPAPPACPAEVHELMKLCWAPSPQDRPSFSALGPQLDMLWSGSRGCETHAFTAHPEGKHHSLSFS

| SMILES | IC50 [nM] |
| --- | --- |
| C=CC(=O)Nc1cccc(CNc2nc(Nc3ccc(N4CCN(C)CC4)cc3OC)ncc2C2CC2)c1 [Compound 91] | 220 |
| C=CC(=O)Nc1cccc(CN2C(=O)N(C)Cc3cnc(Nc4cnn(C)c4)nc32)c1 [Compound 43] | 20.9 |
| C=CC(=O)Nc1cccc(CN2CCc3cnc(Nc4cnn(C)c4)nc32)c1 [Compound 48] | 8040 |
| C=CC(=O)Nc1cccc(CNc2nc(Nc3cc(Cl)c(C4CCOCC4)c(Cl)c3)ncc2Cl)c1 [Compound 45] | 100 |
| C=CC(=O)Nc1cccc(CNc2nc(Nc3cc(F)c(C4CCOCC4)c(F)c3)ncc2Cl)c1 [Compound 50] | 20.5 |
| CCC(=O)Nc1ccc(CNc2nc(Nc3ccc(N4CCN(C)CC4)cc3OC)ncc2Cl)cc1 [Compound 5] | 5420 |
| C=CC(=O)Nc1ccc(CN2C(=O)NCc3cnc(Nc4ccc(N5CCN(C)CC5)cc4)nc32)cc1 [Compound 34] | 1.21 |
| C=CC(=O)Nc1ccc(CNc2nc(Nc3ccc(N4CCN(C)CC4)cc3)ncc2Cl)cc1 [Compound 15] | 0.689 |
| C=CC(=O)Nc1ccc(CN2C(=O)N(C)Cc3cnc(Nc4ccc(N5CCN(C)CC5)cc4)nc32)cc1 [Compound 35] | 30.4 |
| C=CC(=O)Nc1ccc(CNc2nc(Nc3ccc(N4CCN(C)CC4)c(F)c3)ncc2Cl)cc1 [Compound 16] | 2.79 |
| C=CC(=O)Nc1ccc(CNc2nc(Nc3ccc(N4CCN(C)CC4)cc3OC)ncc2Br)cc1 [Compound 3] | 33.2 |
| C=CC(=O)Nc1cccc(CNc2nc(Nc3cc(OC)c(N4CCN(C)CC4)cc3OC)ncc2Cl)c1 [Compound 57] | 170 |
| C=CC(=O)Nc1ccc(CNc2nc(Nc3ccc(N4CCN(C)CC4)cc3OC)ncc2C(F)(F)F)cc1 [Compound 4] | 57.2 |

molecular target: T2, Ba/F3 JAK3 (Homo sapiens, UniProt P52333); test: CellTiter-Glo cell proliferation, Ba/F3 JAK3; assay type: cell-based, murine; conditions: 72 hours; read-out: Ba/F3 IC50 JAK3
T2 construct: candidate: TEL (ETV6) N-terminal oligomerisation domain
T2 sequence (P52333 1-1124): T1 sequence (P52333 1-1124)

| SMILES | GI50 [nM] |
| --- | --- |
| C=CC(=O)Nc1cccc(CN2C(=O)N(C)Cc3cnc(Nc4cnn(C)c4)nc32)c1 [Compound 43] | 400 |
| C=CC(=O)Nc1cccc(CN2CCc3cnc(Nc4cnn(C)c4)nc32)c1 [Compound 48] | > 50000 |
| C=CC(=O)Nc1cccc(CNc2nc(Nc3cc(F)c(C4CCOCC4)c(F)c3)ncc2Cl)c1 [Compound 50] | 100 |
| C=CC(=O)Nc1ccc(CN2C(=O)NCc3cnc(Nc4ccc(N5CCN(C)CC5)cc4)nc32)cc1 [Compound 34] | 576 |
| C=CC(=O)Nc1ccc(CNc2nc(Nc3ccc(N4CCN(C)CC4)cc3)ncc2Cl)cc1 [Compound 15] | 10.6 |
| C=CC(=O)Nc1ccc(CN2C(=O)N(C)Cc3cnc(Nc4ccc(N5CCN(C)CC5)cc4)nc32)cc1 [Compound 35] | 880 |
| C=CC(=O)Nc1ccc(CNc2nc(Nc3ccc(N4CCN(C)CC4)c(F)c3)ncc2Cl)cc1 [Compound 16] | 17.8 |

molecular target: T3, Ba/F3 TYK2 (Homo sapiens, UniProt P29597); test: CellTiter-Glo cell proliferation, Ba/F3 TYK2; assay type: cell-based, murine; conditions: 72 hours; read-out: Ba/F3 IC50 TYK2
T3 construct: The likeliest candidate is TEL (ETV6) N-terminal oligomerisation domain fused to the TYK2 kinase domain; BCR, another partner, or no partner are also possible
T3 sequence (P29597 whole entry, change not shown, the tested form may be a part): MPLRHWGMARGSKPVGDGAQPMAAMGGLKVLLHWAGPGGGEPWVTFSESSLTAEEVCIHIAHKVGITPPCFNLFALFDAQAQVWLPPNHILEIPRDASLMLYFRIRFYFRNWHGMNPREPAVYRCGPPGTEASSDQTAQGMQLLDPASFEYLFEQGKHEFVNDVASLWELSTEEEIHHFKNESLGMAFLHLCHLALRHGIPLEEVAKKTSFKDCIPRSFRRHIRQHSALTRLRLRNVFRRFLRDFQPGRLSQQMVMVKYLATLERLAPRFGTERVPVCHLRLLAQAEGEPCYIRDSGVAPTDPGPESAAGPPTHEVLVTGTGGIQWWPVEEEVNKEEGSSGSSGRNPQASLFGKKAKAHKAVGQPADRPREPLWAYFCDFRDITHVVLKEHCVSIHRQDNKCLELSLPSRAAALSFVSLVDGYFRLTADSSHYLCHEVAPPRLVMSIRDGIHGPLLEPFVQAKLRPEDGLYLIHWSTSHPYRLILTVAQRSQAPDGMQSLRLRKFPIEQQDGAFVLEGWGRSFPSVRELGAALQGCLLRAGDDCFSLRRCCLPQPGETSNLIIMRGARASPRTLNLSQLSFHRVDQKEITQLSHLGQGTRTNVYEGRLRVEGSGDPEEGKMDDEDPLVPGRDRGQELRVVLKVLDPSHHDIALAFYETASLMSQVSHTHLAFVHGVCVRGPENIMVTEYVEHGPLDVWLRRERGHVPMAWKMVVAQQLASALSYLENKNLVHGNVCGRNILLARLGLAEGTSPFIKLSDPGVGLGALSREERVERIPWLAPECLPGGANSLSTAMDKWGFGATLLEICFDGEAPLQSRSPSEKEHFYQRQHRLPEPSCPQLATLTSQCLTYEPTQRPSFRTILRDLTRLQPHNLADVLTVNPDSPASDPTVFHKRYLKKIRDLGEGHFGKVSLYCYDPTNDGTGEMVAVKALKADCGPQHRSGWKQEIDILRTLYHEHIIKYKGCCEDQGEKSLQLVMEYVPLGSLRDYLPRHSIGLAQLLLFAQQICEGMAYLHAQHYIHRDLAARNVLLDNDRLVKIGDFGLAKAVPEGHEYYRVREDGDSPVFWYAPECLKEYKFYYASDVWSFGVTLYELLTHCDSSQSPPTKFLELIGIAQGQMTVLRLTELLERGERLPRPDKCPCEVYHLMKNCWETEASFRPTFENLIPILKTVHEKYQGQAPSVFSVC

| SMILES | GI50 [nM] |
| --- | --- |
| C=CC(=O)Nc1cccc(CNc2nc(Nc3cnn(CCOCCOCCOCCNC(=O)CCCC[C@@H]4SC[C@@H]5NC(=O)N[C@@H]54)c3)ncc2Cl)c1 [Compound 93] | 15400 |
| C=CC(=O)Nc1cccc(CN2C(=O)N(C)Cc3cnc(Nc4cnn(C)c4)nc32)c1 [Compound 43] | 50100 |
| C=CC(=O)Nc1cccc(CN2CCc3cnc(Nc4cnn(C)c4)nc32)c1 [Compound 48] | 8850 |
| C=CC(=O)Nc1cccc(CNc2nc(Nc3cc(F)c(C4CCOCC4)c(F)c3)ncc2Cl)c1 [Compound 50] | > 50000 |
| C=CC(=O)Nc1ccc(CN2C(=O)NCc3cnc(Nc4ccc(N5CCN(C)CC5)cc4)nc32)cc1 [Compound 34] | 29500 |
| C=CC(=O)Nc1ccc(CNc2nc(Nc3ccc(N4CCN(C)CC4)cc3)ncc2Cl)cc1 [Compound 15] | 144 |
| C=CC(=O)Nc1ccc(CN2C(=O)N(C)Cc3cnc(Nc4ccc(N5CCN(C)CC5)cc4)nc32)cc1 [Compound 35] | 10100 |
| C=CC(=O)Nc1ccc(CNc2nc(Nc3ccc(N4CCN(C)CC4)c(F)c3)ncc2Cl)cc1 [Compound 16] | 284 |
| C=CC(=O)Nc1cccc(CNc2cc(Nc3cnn(C)c3)ncn2)c1 [Compound 38] | 78000 |

molecular target: T4, Ba/F3 JAK1 (Homo sapiens, UniProt P23458); test: CellTiter-Glo cell proliferation, Ba/F3 JAK1; assay type: cell-based, murine; conditions: 72 hours; read-out: Ba/F3 IC50 JAK1
T4 construct: candidate: TEL (ETV6) N-terminal oligomerisation domain
T4 sequence (P23458 whole entry, change not shown, the tested form may be a part): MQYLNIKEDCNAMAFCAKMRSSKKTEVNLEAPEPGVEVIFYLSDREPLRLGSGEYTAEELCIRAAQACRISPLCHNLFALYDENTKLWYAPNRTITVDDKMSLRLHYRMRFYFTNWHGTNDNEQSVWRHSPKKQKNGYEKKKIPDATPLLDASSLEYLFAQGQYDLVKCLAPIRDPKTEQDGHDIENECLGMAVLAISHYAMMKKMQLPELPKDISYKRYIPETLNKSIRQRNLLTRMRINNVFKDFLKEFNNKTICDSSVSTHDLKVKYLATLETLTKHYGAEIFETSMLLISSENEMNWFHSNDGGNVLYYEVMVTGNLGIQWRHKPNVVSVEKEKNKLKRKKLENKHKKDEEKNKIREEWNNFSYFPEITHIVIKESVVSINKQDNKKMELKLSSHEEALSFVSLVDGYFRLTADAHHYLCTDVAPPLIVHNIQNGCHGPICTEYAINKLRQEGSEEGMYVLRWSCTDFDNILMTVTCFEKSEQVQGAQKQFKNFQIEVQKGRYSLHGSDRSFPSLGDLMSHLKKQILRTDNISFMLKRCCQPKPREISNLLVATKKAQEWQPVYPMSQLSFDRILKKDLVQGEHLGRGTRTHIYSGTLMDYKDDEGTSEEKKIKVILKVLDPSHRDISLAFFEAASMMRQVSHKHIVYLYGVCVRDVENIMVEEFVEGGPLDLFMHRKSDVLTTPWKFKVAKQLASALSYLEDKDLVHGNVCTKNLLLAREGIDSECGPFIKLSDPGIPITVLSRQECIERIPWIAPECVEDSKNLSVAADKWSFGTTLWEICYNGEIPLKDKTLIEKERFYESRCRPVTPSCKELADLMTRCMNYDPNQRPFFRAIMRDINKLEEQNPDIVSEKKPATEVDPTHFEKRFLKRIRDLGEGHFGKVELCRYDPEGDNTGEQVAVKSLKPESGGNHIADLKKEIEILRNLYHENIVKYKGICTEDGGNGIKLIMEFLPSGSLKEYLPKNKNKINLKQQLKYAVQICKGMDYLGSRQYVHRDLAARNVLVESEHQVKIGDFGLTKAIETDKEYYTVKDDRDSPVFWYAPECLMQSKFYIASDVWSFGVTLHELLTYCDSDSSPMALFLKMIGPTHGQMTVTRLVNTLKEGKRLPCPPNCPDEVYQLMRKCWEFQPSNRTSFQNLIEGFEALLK

| SMILES | GI50 [nM] |
| --- | --- |
| C=CC(=O)Nc1cccc(CNc2nc(Nc3cnn(CCOCCOCCOCCNC(=O)CCCC[C@@H]4SC[C@@H]5NC(=O)N[C@@H]54)c3)ncc2Cl)c1 [Compound 93] | 18700 |
| C=CC(=O)Nc1cccc(CN2C(=O)N(C)Cc3cnc(Nc4cnn(C)c4)nc32)c1 [Compound 43] | 14000 |
| C=CC(=O)Nc1cccc(CN2CCc3cnc(Nc4cnn(C)c4)nc32)c1 [Compound 48] | 56400 |
| C=CC(=O)Nc1cccc(CNc2nc(Nc3cc(F)c(C4CCOCC4)c(F)c3)ncc2Cl)c1 [Compound 50] | > 50000 |
| C=CC(=O)Nc1ccc(CN2C(=O)NCc3cnc(Nc4ccc(N5CCN(C)CC5)cc4)nc32)cc1 [Compound 34] | > 10000 |
| C=CC(=O)Nc1ccc(CNc2nc(Nc3ccc(N4CCN(C)CC4)cc3)ncc2Cl)cc1 [Compound 15] | 172 |
| C=CC(=O)Nc1ccc(CN2C(=O)N(C)Cc3cnc(Nc4ccc(N5CCN(C)CC5)cc4)nc32)cc1 [Compound 35] | 87600 |
| C=CC(=O)Nc1ccc(CNc2nc(Nc3ccc(N4CCN(C)CC4)c(F)c3)ncc2Cl)cc1 [Compound 16] | 379 |

molecular target: T5, Ba/F3 ABL (Homo sapiens, UniProt P00519); test: CellTiter-Glo cell proliferation, Ba/F3 ABL; assay type: cell-based, murine; conditions: 72 hours; read-out: Ba/F3 IC50 ABL
T5 construct: candidates: BCR or TEL (ETV6)
T5 sequence (P00519 whole entry, change not shown): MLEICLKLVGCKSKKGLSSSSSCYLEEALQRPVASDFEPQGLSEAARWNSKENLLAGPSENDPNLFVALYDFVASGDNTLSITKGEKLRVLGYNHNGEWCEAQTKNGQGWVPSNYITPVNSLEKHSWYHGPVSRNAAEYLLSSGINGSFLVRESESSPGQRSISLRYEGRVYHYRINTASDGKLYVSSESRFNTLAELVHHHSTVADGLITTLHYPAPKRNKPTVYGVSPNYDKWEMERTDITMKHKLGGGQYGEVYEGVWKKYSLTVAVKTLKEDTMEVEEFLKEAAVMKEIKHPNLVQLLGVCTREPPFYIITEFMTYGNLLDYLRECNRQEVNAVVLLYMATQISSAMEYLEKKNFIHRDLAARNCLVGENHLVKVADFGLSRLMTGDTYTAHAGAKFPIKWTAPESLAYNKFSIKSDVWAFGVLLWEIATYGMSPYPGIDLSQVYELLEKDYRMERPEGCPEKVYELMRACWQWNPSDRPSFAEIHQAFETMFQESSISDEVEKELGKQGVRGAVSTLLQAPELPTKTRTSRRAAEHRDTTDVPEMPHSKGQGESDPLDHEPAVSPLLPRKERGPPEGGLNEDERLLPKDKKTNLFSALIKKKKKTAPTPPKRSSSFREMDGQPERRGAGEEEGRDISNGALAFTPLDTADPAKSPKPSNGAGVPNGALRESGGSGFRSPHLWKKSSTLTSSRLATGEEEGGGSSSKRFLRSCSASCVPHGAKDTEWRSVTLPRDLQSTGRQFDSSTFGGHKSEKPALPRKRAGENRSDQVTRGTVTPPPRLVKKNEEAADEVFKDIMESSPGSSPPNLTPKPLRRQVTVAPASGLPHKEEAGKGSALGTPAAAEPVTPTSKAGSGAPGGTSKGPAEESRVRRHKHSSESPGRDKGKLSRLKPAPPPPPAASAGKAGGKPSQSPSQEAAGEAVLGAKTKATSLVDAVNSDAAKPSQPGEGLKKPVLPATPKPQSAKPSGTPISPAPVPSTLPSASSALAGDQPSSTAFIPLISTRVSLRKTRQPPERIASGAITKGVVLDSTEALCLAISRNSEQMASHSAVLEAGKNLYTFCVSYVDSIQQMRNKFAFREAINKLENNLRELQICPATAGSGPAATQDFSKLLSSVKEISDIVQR
Experimental: CellTiter-Glo® Luminescent cell viability assay (Promega) was used to assess cell survival following treatment with the compounds described herein. Cells were seeded into 384 well plates with the EL406 Combination Washer Dispenser (BioTek Instruments, Inc.), and the compounds were injected into the cells culture media with the JANUS Automated Workstation (PerkinElmer Inc.). Cells were treated with a series diluted inhibitors (20 to 0.04 μM) for 72 hours at 37° C. Luminescent measurement is performed using the 2104 Envision® Multilabel Reader (PerkinElmer Inc.). The cell lines employed include Ba/F3 (a murine interleukin-3 dependent pro-B cell line), NKL (a Natural Killer Cell Lymphoma (NKCL) cell line), CMK (an Acute Megakaryoblastic Leukemia (AMKL) cell line).

| SMILES | GI50 [nM] |
| --- | --- |
| C=CC(=O)Nc1cccc(CNc2nc(Nc3cnn(CCOCCOCCOCCNC(=O)CCCC[C@@H]4SC[C@@H]5NC(=O)N[C@@H]54)c3)ncc2Cl)c1 [Compound 93] | > 50000 |
| C=CC(=O)Nc1cccc(CN2C(=O)N(C)Cc3cnc(Nc4cnn(C)c4)nc32)c1 [Compound 43] | > 50000 |
| C=CC(=O)Nc1cccc(CN2CCc3cnc(Nc4cnn(C)c4)nc32)c1 [Compound 48] | > 50000 |
| C=CC(=O)Nc1cccc(CNc2nc(Nc3cc(F)c(C4CCOCC4)c(F)c3)ncc2Cl)c1 [Compound 50] | > 50000 |
| C=CC(=O)Nc1ccc(CN2C(=O)NCc3cnc(Nc4ccc(N5CCN(C)CC5)cc4)nc32)cc1 [Compound 34] | 29200 |
| C=CC(=O)Nc1ccc(CNc2cc(Nc3ccc(N4CCN(C)CC4)cc3)ncn2)cc1 [Compound 32] | 22400 |
| C=CC(=O)Nc1ccc(CNc2nc(Nc3ccc(N4CCN(C)CC4)cc3)ncc2Cl)cc1 [Compound 15] | 158 |
| C=CC(=O)Nc1ccc(CN2C(=O)N(C)Cc3cnc(Nc4ccc(N5CCN(C)CC5)cc4)nc32)cc1 [Compound 35] | 8840 |
| C=CC(=O)Nc1ccc(CNc2nc(Nc3ccc(N4CCN(C)CC4)c(F)c3)ncc2Cl)cc1 [Compound 16] | 453 |

molecular target: T6, Ba/F3 JAK2 (Homo sapiens, UniProt O60674); test: CellTiter-Glo cell proliferation, Ba/F3 JAK2; assay type: cell-based, murine; conditions: 72 hours; read-out: Ba/F3 IC50 JAK2
T6 construct: candidate: TEL (ETV6) N-terminal oligomerisation domain
T6 sequence (O60674 whole entry, change not shown, the tested form may be a part): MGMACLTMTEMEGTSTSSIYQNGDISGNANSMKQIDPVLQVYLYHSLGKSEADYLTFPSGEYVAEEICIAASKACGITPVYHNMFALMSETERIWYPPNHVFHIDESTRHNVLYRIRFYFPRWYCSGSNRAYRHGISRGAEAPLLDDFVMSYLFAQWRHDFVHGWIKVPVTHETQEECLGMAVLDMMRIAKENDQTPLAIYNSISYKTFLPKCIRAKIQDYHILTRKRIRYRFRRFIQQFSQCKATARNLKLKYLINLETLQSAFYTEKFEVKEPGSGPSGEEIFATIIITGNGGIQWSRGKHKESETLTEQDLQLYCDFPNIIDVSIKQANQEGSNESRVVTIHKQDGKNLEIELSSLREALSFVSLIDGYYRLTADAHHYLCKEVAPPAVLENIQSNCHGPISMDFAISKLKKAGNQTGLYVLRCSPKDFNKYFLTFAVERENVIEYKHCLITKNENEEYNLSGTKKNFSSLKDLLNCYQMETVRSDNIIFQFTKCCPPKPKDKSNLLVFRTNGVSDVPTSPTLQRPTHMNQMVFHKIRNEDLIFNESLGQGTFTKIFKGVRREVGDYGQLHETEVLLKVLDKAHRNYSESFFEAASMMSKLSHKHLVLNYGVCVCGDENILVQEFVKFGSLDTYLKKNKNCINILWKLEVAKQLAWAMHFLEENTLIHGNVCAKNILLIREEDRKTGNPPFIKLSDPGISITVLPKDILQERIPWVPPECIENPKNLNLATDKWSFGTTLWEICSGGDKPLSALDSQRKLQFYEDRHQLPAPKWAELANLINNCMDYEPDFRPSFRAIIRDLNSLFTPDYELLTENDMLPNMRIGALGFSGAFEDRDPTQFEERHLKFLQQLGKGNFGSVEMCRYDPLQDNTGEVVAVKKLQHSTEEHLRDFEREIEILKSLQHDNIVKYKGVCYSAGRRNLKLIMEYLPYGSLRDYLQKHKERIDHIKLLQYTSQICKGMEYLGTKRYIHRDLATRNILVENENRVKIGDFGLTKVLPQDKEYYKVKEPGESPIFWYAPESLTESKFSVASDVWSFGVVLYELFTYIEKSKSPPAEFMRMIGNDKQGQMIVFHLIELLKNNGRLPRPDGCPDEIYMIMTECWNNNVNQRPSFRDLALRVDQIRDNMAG

| SMILES | GI50 [nM] |
| --- | --- |
| C=CC(=O)Nc1cccc(CNc2nc(Nc3cnn(CCOCCOCCOCCNC(=O)CCCC[C@@H]4SC[C@@H]5NC(=O)N[C@@H]54)c3)ncc2Cl)c1 [Compound 93] | > 50000 |
| C=CC(=O)Nc1cccc(CN2C(=O)N(C)Cc3cnc(Nc4cnn(C)c4)nc32)c1 [Compound 43] | > 50000 |
| C=CC(=O)Nc1cccc(CN2CCc3cnc(Nc4cnn(C)c4)nc32)c1 [Compound 48] | 18100 |
| C=CC(=O)Nc1cccc(CNc2nc(Nc3cc(F)c(C4CCOCC4)c(F)c3)ncc2Cl)c1 [Compound 50] | > 50000 |
| C=CC(=O)Nc1ccc(CN2C(=O)NCc3cnc(Nc4ccc(N5CCN(C)CC5)cc4)nc32)cc1 [Compound 34] | 30100 |
| C=CC(=O)Nc1ccc(CNc2nc(Nc3ccc(N4CCN(C)CC4)cc3)ncc2Cl)cc1 [Compound 15] | 200 |
| C=CC(=O)Nc1ccc(CN2C(=O)N(C)Cc3cnc(Nc4ccc(N5CCN(C)CC5)cc4)nc32)cc1 [Compound 35] | 14600 |
| C=CC(=O)Nc1ccc(CNc2nc(Nc3ccc(N4CCN(C)CC4)c(F)c3)ncc2Cl)cc1 [Compound 16] | 538 |

— patent US10017477B2, “Janus kinase inhibitors and uses thereof” (Dana-Farber Cancer Institute, Inc., priority 2014, dated 2018)
